Measurements published in patent US9309263B2, “Fused multi-cyclic sulfone compounds as inhibitors of beta-secretase and methods of use thereof” (AMGEN INC., priority 2013, dated 2016).
Where two headings read alike, the source gives them in different places.

Columns and labels:
[1] = tested on: Aβ 40 in conditioned medium of cells stably expressing Amyloid Precursor Protein (APP); assay: In vitro BACE cell-based assay (Aβ 40 sandwich ELISA)
Procedure: In Vitro BACE Cell-Based Assay
The cell-based assay measures inhibition or reduction of […] in conditioned medium of test compound treated cells expressing amyloid precursor protein.
Cells stably expressing Amyloid Precursor Protein (APP) were plated at a density of 40K cells/well in 96 well plates (Costar). The cells were cultivated for 24 hours at 37° C. and 5% CO2 in DMEM supplemented with 10% FBS. The test compounds were then added to cells in 10-point dose response concentrations with the starting concentration being either 100 μM or 10 μM. The compounds were diluted from stock solutions in DMSO and the final DMSO concentration of the test compounds on cells was 0.1%. After 24 h of incubation with the test compounds the supernatant conditioned media was collected and the Aβ 40 levels were determined using a sandwich ELISA. The IC50 of the compound was calculated from the percent of control or percent inhibition of Aβ 40 as a function of the concentration of the test compound.
The sandwich ELISA to detect Aβ 40 was performed in 96 well microtiter plates, which were pre-treated with goat anti-rabbit IgG (Pierce). The capture and detecting antibody pair that were used to detect Aβ 40 from cell supernatants were affinity purified pAb40 (Biosource) and biotinylated 6E10 (Signet Labs Inc.), respectively. The optimal concentration for the pAb40 antibody was 3 μg/ml in Superblock/TBS (Pierce) that was supplemented with 0.05% Tween 20 (Sigma). Optimal concentration for the detection antibody 6E10-biotinylated was 0.5 μg/ml in Superblock/TBS (Pierce) that had been supplemented with 2% normal goat serum and 2% normal mouse serum.
Cellular supernatants were incubated with the capture antibody for 3 h at 4° C., followed by 3 wash steps in TBS-tween (0.05%). The detecting antibody incubation was for 2 h at 4° C., again followed by the wash steps as described previously. The final readout of the ELISA is Time-Resolved Fluorescence (counts per minute) using Delfia reagents Streptavidin-Europium and Enhancement solutions (Perkin Elmer) and the Victor 2 multilabel counter (Perkin Elmer).

[2] = target: Cathepsin D (Cat D) (Homo sapiens, UniProt P07339); assay: In vitro enzymatic Cathepsin D (Cat D) FRET assay; type: biochemical
Sequence of Cathepsin D (Cat D) (P07339 65-412, species assumed): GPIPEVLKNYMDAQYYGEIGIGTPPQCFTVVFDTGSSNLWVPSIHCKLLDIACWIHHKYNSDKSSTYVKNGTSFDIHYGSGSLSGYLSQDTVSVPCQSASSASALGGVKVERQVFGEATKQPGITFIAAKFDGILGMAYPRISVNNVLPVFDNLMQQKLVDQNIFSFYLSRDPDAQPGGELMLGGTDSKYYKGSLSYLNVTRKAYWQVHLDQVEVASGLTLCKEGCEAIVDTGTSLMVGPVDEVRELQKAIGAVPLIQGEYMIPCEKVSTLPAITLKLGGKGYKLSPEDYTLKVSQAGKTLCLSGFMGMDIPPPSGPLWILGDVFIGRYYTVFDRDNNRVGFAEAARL
Procedure: In Vitro Enzymatic Cathepsin D (Cat D) FRET (Fluorescence Resonance Energy Transfer) Assay
Recombinant Cat D was expressed in CHO cells. The assay buffer for CathepsinD is 0.05 M citrate pH 3.5, 10% DMSO final, 5 mM CHAPS. The Cat D enzyme (9 nM) is pre-incubated for one hour with inhibitors, typically in about 1 uL of DMSO according to a serial dilution, is added thereto. The assays are effectively started by the addition of different FRET substrates (20 nM for Cat D) and the combination is incubated for one hour. The FRET assay is terminated with by addition of Tris buffer, which raises the pH to neutrality, and the fluorescence is determined. The FRET substrate is a peptide with commercially available fluorophore and quencher, on opposite sides of the BACE cleavage site. The Cat D substrate peptide sequence is based on sequence #1 of Table 1 from Gulnik et al. FEBS Letters v413 p 379-384 1997. Proteolytic cleavage of the FRET substrate releases quenching of fluorescence (Cat D excitation 500 nm and emission 580 nm). […]
See, for instance, examples 8, 12, 15, 16, 18, 21-23, 24, 25, 26, 29, 30, 32, 41-42, 45, 53, 54, 57, 63, 67-69, 72-74, 76, 79-81, 83 & 84 (to point to just a few; referring to data in Table 2). […] See, for instance, examples 8, 12, 15, 18, 21-23, 25, 29, 30, 32, 41-42, 45, 54, 57, 67-68, 72-73, 76, 80-81, 84, 86, 91-92 & 100 (to point out those from compound examples 1-100; and with reference to data in Table 2).

[3] = target: Beta Secretase enzyme (BACE) (Homo sapiens, UniProt P56817); assay: In vitro enzymatic BACE FRET assay; type: biochemical; settings: read-out: BACE1 FRET assay IC50
Sequence of Beta Secretase enzyme (BACE) (P56817 46-501): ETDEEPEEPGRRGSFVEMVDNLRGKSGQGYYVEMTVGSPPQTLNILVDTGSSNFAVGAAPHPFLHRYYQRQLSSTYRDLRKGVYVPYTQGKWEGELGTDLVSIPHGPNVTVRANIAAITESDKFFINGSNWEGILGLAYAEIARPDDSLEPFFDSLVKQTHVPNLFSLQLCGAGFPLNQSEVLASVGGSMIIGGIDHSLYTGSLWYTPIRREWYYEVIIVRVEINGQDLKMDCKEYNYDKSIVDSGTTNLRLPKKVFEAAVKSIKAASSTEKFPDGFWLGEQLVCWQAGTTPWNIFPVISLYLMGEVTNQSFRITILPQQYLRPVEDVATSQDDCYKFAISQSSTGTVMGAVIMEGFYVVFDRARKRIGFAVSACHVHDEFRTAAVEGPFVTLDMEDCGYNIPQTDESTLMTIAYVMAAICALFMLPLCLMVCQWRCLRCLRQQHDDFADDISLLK
Procedure: In Vitro Enzymatic BACE FRET (Fluorescence Resonance Energy Transfer) Assay (Enzyme Assay Data in the Example Table I)
The assay buffer used in this screen is 0.05 M acetate, pH 4.2, 10% DMSO final, 100 uM genapol (which is a nonionic detergent, below its Critical Micelle Concentration). The Beta Secretase enzyme (0.2 nM) is pre-incubated for one hour with inhibitors, typically in about 1 uL of DMSO according to a serial dilution, are added thereto. This assay is effectively started by the addition of FRET substrate (50 nM) and the combination is incubated for one hour. The FRET assay is terminated with by addition of Tris buffer, which raises the pH to neutrality, and the fluorescence is determined. The FRET substrate is a peptide with commercially available fluorophore and quencher, on opposite sides of the BACE cleavage site. Proteolytic cleavage of the FRET substrate releases quenching of fluorescence (excitation 488 nm and […]).

[4] = Homo sapiens, HEK293, HEK cell, average IC50
[5] = Homo sapiens, HEK293, average IC50, HEK cell assay, Aβ 40 readout
[6] = Cathepsin D FRET assay, read-out: CatD IC50
[7] = average IC50, in vitro enzymatic BACE FRET assay
[8] = text summary referring to data in Table 2

SMILES | IC50 [1, 4] [µM] | IC50 ([2]; read-out: CatD IC50) [µM] | IC50 ([3]; average IC50) [µM] | IC50 [1, 5] [µM] | IC50 [2, 6] [µM] | IC50 [3, 7] [µM] | further results
CC1(C)C(N)=N[C@]2(C)c3cc(NC(=O)c4ncc(Cl)cc4Cl)ccc3CCC[C@H]2S1(=O)=O [Example 44, N-((4aR,11bR)-2-amino-3,3,11b-trimethyl-4,4-dioxido-3,4a,5,6,7,11b-hexahydrobenzo[3,4]cyclohepta[1,2-b][1,4]thiazin-10-yl)-3,5-dichloro-2-pyridinecarboxamide] | 0.016 | 541 | 0.005 |  |  |  | 
COc1cnc2c(Nc3ccc4c(c3)[C@@]3(C)N=C(N)C(C)(C)S(=O)(=O)[C@H]3CCO4)nccc2n1 [Example 159, (4aS,11bR)-N^~10^~-(2-methoxypyrido[3,4-b]pyrazin-5-yl)-3,3,11b-trimethyl-4a,5,6,11b-tetrahydro-3H-[1]benzoxepino[4,5-b][1,4]thiazine-2,10-diamine 4,4-dioxide] |  |  |  | 0.052 | > 400 | 0.075 | 
CC(C)Oc1cnc2c(Nc3ccc4c(c3)[C@@]3(CF)N=C(N)C(C)(C)S(=O)(=O)[C@@H]3CCO4)nccc2n1 [Example 150, (4aR,11bS)-11b-(fluoromethyl)-3,3-dimethyl-N^~10^~-(2-(1-methylethoxy)pyrido[3,4-b]pyrazin-5-yl)-4a,5,6,11b-tetrahydro-3H-[1]benzoxepino[4,5-b][1,4]thiazine-2,10-diamine 4,4-dioxide] |  |  |  | 1.4 | > 400 | 0.227 | 
Cc1cc(Cl)cnc1C(=O)Nc1ccc2c(c1)[C@@]1(C)N=C(N)C(C)(C)S(=O)(=O)[C@]1(F)CCO2 [Example 65, N-((4aR,11bR)-2-amino-4a-fluoro-3,3,11b-trimethyl-4,4-dioxido-4a,5,6,11b-tetrahydro-3H-[1]benzoxepino[4,5-b][1,4]thiazin-10-yl)-5-chloro-3-methyl-2-pyridinecarboxamide] | 0.074 | 324 | 0.006 |  |  |  | 
Cc1cc(Cl)cnc1C(=O)Nc1cnc2c(c1)[C@@]1(C)N=C(N)C(C)(C)S(=O)(=O)[C@@H]1CCO2 [Example 18, N-((4aR,11bR)-2-amino-3,3,11b-trimethyl-4,4-dioxido-4a,5,6,11b-tetrahydro-3H-pyrido[3′,2′:6,7]oxepino[4,5-b][1,4]thiazin-10-yl)-5-chloro-3-methyl-2-pyridinecarboxamide] | 0.014 | 1290 | 0.006 |  |  |  | IC50 [2, 8]: > 1200 µM
CC1(C)C(N)=N[C@]2(C)c3cc(Nc4nccc5cc(Cl)cnc45)ccc3CCC[C@@H]2S1(=O)=O [Example 34, (4aS,11bR)-N^~10^~-(3-chloro-1,7-naphthyridin-8-yl)-3,3,11b-trimethyl-3,4a,5,6,7,11b-hexahydrobenzo[3,4]cyclohepta[1,2-b][1,4]thiazine-2,10-diamine 4,4-dioxide] | 0.464 | 409 | 0.071 |  |  |  | 

More lines, main results first:

IC50 [1, 4] [µM] | IC50 ([2]; read-out: CatD IC50) [µM] | IC50 ([3]; average IC50) [µM] | IC50 [1, 5] [µM] | IC50 [2, 6] [µM] | IC50 [3, 7] [µM] | SMILES | further results
0.01 | 1400 | 0.003 |  |  |  | Cc1nc(OCC(F)(F)F)cnc1C(=O)Nc1ccc2c(c1)[C@@]1(C)N=C(N)C(C)(C)S(=O)(=O)[C@@H]1CCO2 [Example 23, N-((4aR,11bR)-2-amino-3,3,11b-trimethyl-4,4-dioxido-4a,5,6,11b-tetrahydro-3H-[1]benzoxepino[4,5-b][1,4]thiazin-10-yl)-3-methyl-5-(2,2,2-trifluoroethoxy)-2-pyrazinecarboxamide] | 
0.001 | 1490 | 0.004 |  |  |  | Cc1cnc(COc2cnc(C(=O)Nc3ccc4c(c3)[C@@]3(C)N=C(N)C(C)(C)S(=O)(=O)[C@@H]3C[C@H](C)O4)cn2)o1 [Example 80, N-((4aR,6S,11bR)-2-amino-3,3,6,11b-tetramethyl-4,4-dioxido-4a,5,6,11b-tetrahydro-3H-[1]benzoxepino[4,5-b][1,4]thiazin-10-yl)-5-((5-methyl-1,3-oxazol-2-yl)methoxy)-2-pyrazinecarboxamide] | IC50 [2, 8]: > 1200 µM
 |  |  | 0.044 | 745 | 0.01 | CC1(C)C(N)=N[C@]2(C)c3cc(NC(=O)c4cnc(OCC5CC5)cn4)ccc3OCC[C@H]2S1(=O)=O [Example 88, N-((4aR,11bR)-2-amino-3,3,11b-trimethyl-4,4-dioxido-4a,5,6,11b-tetrahydro-3H-benzo[6,7]oxepino[4,5-b][1,4]thiazin-10-yl)-5-(cyclopropylmethoxy)pyrazine-2-carboxamide] | 
 |  |  | 0.0005 | 215 | 0.001 | C#CCOc1cnc(C(=O)Nc2ccc3c(c2)[C@@]2(C)N=C(N)C(C)(C)S(=O)(=O)[C@@H]2C[C@H](C)O3)cn1 [Example 142, N-((4aR,6S,11bR)-2-amino-3,3,6,11b-tetramethyl-4,4-dioxido-4a,5,6,11b-tetrahydro-3H-[1]benzoxepino[4,5-b][1,4]thiazin-10-yl)-5-(2-propyn-1-yloxy)-2-pyrazinecarboxamide] | 
 | 1170 | 0.01 |  |  |  | Cc1cc(OC(F)F)cnc1C(=O)Nc1ccc2c(c1)[C@@]1(C)N=C(N)C(C)(C)S(=O)(=O)[C@H]1CCO2 [Example 160, N-((4aS,11bR)-2-amino-3,3,11b-trimethyl-4,4-dioxido-4a,5,6,11b-tetrahydro-3H-[1]benzoxepino[4,5-b][1,4]thiazin-10-yl)-5-(difluoromethoxy)-3-methyl-2-pyridinecarboxamide] | IC50 ([1]; Homo sapiens, HEK293, HEK cells, average IC50): 0.003 µM
 |  |  | 0.091 | > 133 | 0.018 | Cc1cc(COc2cnc3c(Nc4ccc5c(c4)[C@@]4(C)N=C(N)C(C)(C)S(=O)(=O)[C@@H]4C[C@H](C)O5)nccc3n2)on1 [Example 137, (4aR,6S,11bR)-3,3,6,11b-tetramethyl-N^~10^~-(2-((3-methyl-5-isoxazolyl)methoxy)pyrido[3,4-b]pyrazin-5-yl)-4a,5,6,11b-tetrahydro-3H-[1]benzoxepino[4,5-b][1,4]thiazine-2,10-diamine 4,4-dioxide] | 
0.026 | 237 | 0.003 |  |  |  | CC#C[C@H](C)Oc1cnc2c(Nc3ccc4c(c3)[C@@]3(C)N=C(N)C(C)(C)S(=O)(=O)[C@@H]3CCO4)ncc(F)c2c1 (single isomer, unassigned) [Example 70] | 
 |  |  |  | 462 | 0.003 | CC1(C)C(N)=N[C@]2(CF)c3cc(Nc4nccc5cc(Cl)cnc45)ccc3OCC[C@@H]2S1(=O)=O [Example 154, (4aS,11bS)-N1^~10^~-(3-chloro-1,7-naphthyridin-8-yl)-11b-(fluoromethyl)-3,3-dimethyl-4a,5,6,11b-tetrahydro-3H-[1]benzoxepino[4,5-b][1,4]thiazine-2,10-diamine 4,4-dioxide] | IC50 ([1]; average IC50, HEK cell assay, Aβ 40 readout): 0.032 µM
